{"source": "patent US9486440B2", "about": "“Uses of indole-ketones or indolidones as neuro-protective drugs” (UNIVERSITY OF MACAU, priority 2011, dated 2016)", "key": {"CGNs [1]": {"system": "CGNs", "assay": "MPP+-induced neurotoxicity in CGNs, MTT and LDH assays", "type": "cell-based, rat", "protocol": "(§1) All animal experiments were conducted according to the ethical guidelines of ICMS, Macau University and the Animal Care Facility, The Hong Kong Polytechnic University. Rat CGNs were prepared from 8-day-old Sprague-Dawley rats (The Animal Care Facility, The Hong Kong Polytechnic University) as described by Li et al., 2005. Briefly, neurons were seeded at a density of 2.7×10^5 cells/ml in basal modified Eagle's medium (Invitrogen) containing 10% fetal bovine serum, 25 mM KCl, 2 mM glutamine, and penicillin (100 units/ml)/streptomycin (100 μg/ml). Cytosine arabinoside (10 μM) was added to the culture medium 24 hour after plating to limit the growth of non-neuronal cells. With the use of this protocol, more than 95% of the cultured cells were granule neurons.\n(§2) The percentage of surviving neurons in the presence of SU4312 and/or MPP^+ was estimated by determining the activity of mitochondrial dehydrogenases with 3(4,5-dimethylthiazol-2-yl)-2.5-diphenyltetrazolium bromide (MTT) assay (Li et al., 2007). The assay was performed according to the specifications of the manufacturer (MTT kit I; Roche Applied Science). Briefly, the neurons were cultured in 96-well plates, 10 μl of 5 mg/ml MTT labeling reagent was added to each well containing cells in 100 μl of medium, and the plates were incubated for 4 hours in a humidified incubator at 37° C. After the incubation, 100 μl of the solvating solution (0.01 N HCl in 10% SDS solution) was added to each well for 16-20 hours. Absorbance of the samples was measured at a wavelength of 570 nm with 655 nm as a reference wavelength. Unless otherwise indicated, the extent of MTT conversion in cells exposed to MPP^+ is expressed as a percentage of the control.\nCytotoxicity was determined by measuring the release of lactate dehydrogenase (LDH). Briefly, cells were precipitated by centrifugation at 500 g for 5 min at room temperature, 50 μl of the supernatants was transferred into new wells, and LDH was determined using the in vitro toxicology assay kit (Roche). The absorbance of the samples was measured at a wavelength of 490 nm with 655 nm as a reference wavelength.\nas §1, with “Rat” for “All animal experiments were conducted according to the ethical guidelines of ICMS, Macau University and the Animal Care Facility, The Hong Kong Polytechnic University. Rat”, “hours” for “hour”\nas §2, with “The” for “The percentage of surviving neurons in the presence of SU4312 and/or MPP^+ was estimated by determining the activity of mitochondrial dehydrogenases with 3(4,5-dimethylthiazol-2-yl)-2.5-diphenyltetrazolium bromide (MTT) assay (Li et al., 2007). The”, “incubated at 37° C.” for “incubated”, “incubator.” for “incubator at 37° C.”, “The absorbance” for “Absorbance”"}, "SH-SY5Y cells [2]": {"system": "SH-SY5Y cells", "assay": "MPP+-induced neurotoxicity in SH-SY5Y cells, MTT assay", "type": "cell-based, human", "protocol": "The human neuroblastoma SH-SY5Y cells were obtained from ATCC. The cells were maintained in supplemented Dulbecco's modified eagle medium (DMEM), 10% fetal bovine serum, 100 U/ml penicillin, and 100 μg/ml streptomycin in a 37° C., 5% CO2 incubator. PC12 pheochromocytoma cells were also obtained from ATCC. The cells were cultured in medium that consisted of DMEM, 10% heat-inactivated horse serum, 5% fetal bovine serum, 100 U/ml penicillin, and 100 μg/ml streptomycin in a 37° C., 5% CO2 incubator. All experiments were carried out 48 hours after the cells were seeded. […] The assay was performed according to the specifications of the manufacturer (MTT kit I; Roche Applied Science). […] After the incubation, 100 μl of the solvating solution (0.01 N HCl in 10% SDS solution) was added to each well for 16-20 hours. Absorbance of the samples was measured at a wavelength of 570 nm with 655 nm as a reference wavelength. Unless otherwise indicated, the extent of MTT conversion in cells exposed to MPP^+ is expressed as a percentage of the control."}, "rat cerebellum nNOS": {"target": "T1, rat cerebellum nNOS (Rattus norvegicus, UniProt P29476)", "T1 construct": "purchased Calbiochem", "assay": "In vitro nNOS activity assay, rat cerebellum nNOS", "type": "biochemical", "procedure": "Rat cerebellum nNOS was from Calbiochem. NOS activity was determined by monitoring the conversion of L-[3H]arginine to [3H]citrulline following the instructions provided by the kit (Calbiochem). The reaction mixture contained a final volume of 40 μl with 25 mM Tris-Cl at pH 7.4, 3 μM tetrahydrobiopterin, 1 μM FAD, 1 μM FMN, 1 mM NADPH, 0.6 mM CaCl2, 0.1 μM calmodulin, 2.5 μg of pure NOS enzyme, 5 μl L-[3H]arginine (Perkin Elmer, Waltham, Mass., USA), and different concentrations of the tested reagents. The reaction mixture was incubated at 22° C. for 45 min. The reaction was quenched by adding 400 μl of stopping buffer (50 mM HEPES, pH 5.5, and 5 mM EDTA). Unreacted L-[3H]arginine was then trapped by 100 μl of equilibrated resin in a spin cup followed by centrifugation at 13,200 rpm for 30 s."}, "CGNs [3]": {"system": "CGNs", "assay": "Low potassium-induced cell death in CGNs, MTT assay", "type": "cell-based", "details": "5 mM KCl BME medium, 24 hours; sunitinib 0.1-2 μM", "protocol": "(§3) Cell viability was measured by MTT assay at 24 hours after low potassium challenge. […] After 24 hours of low potassium challenge, CGNs were assayed with an FDA/PI double staining. […] After 24 hours of low potassium challenge, CGNs were assayed with Hoechst staining. The number of apoptotic nuclei with condensed chromatin were counted from representative Hoechst staining photomicrographs and represented as a percentage of the total number of nuclei counted. […] Intracellular NO level was measured using DAF-FM diacetate as a probe at 4 hour after low potassium challenge. Data, expressed as percentage of control (CGNs were cultured in high potassium medium), were the mean±SEM of three separate experiments; *p<0.05 and **p<0.01 versus low potassium group in (A) and (D) or versus control in (C); ^##p<0.01 versus low potassium group in (C) (Turkey's test).\nIt was previously reported that low potassium could induce typical apoptosis in cerebellar granule neurons (CGNs) (Fu et al., 2008). […] Cell viability was measured with an MTT assay 24 hours after the low potassium treatment."}, "CGNs [4]": {"system": "CGNs", "assay": "FDA/PI double staining of CGNs after low potassium", "type": "cell-based", "details": "1.5 μM, 24 hours", "protocol": "as §3\n(§4) The neurons were examined by FDA/PI double staining."}, "CGNs [5]": {"system": "CGNs", "assay": "Hoechst 33342 staining of CGNs after low potassium", "type": "cell-based", "details": "1.5 μM, 24 hours", "protocol": "as §3, §4"}, "intracellular NO [6]": {"system": "intracellular NO", "assay": "Intracellular NO in CGNs after low potassium", "type": "cell-based", "details": "1.5 μM, 4 hour after low potassium challenge", "protocol": "as §3"}, "intracellular NO [7]": {"system": "intracellular NO", "assay": "Intracellular NO in SH-SY5Y cells after MPP+", "type": "cell-based, human", "details": "0.3 μM 2 hours, then 1 mM MPP+ 24 hours", "protocol": "Cell viability was measured by the MTT assay at 24 hours after MPP^+ challenge. […] Intracellular NO level was measured using DAF-FM diacetate as a probe at 24 hour after MPP^+ challenge. Data, expressed as percentage of control, were the mean±SEM of three separate experiments; *p<0.05 and **p<0.01 versus MPP^+ group (ANOVA and Dunnett's test).\nDAF-FM diacetate was also used to evaluate the intracellular NO level in this model."}, "iNOS": {"target": "iNOS (Homo sapiens, UniProt P35228)", "assay": "In vitro NOS activity assay of Example 3, iNOS", "type": "biochemical", "details": "100 μM; data not shown"}, "eNOS": {"target": "eNOS (Homo sapiens, UniProt P29474)", "assay": "In vitro NOS activity assay of Example 3, eNOS", "type": "biochemical", "details": "100 μM; data not shown"}, "[8]": {"system": "nNOS knockdown SH-SY5Y cells", "assay": "MPP+ in ShRNA-mediated nNOS knockdown SH-SY5Y cells", "type": "cell-based, human", "details": "0.3 μM 2 hours, then 1 mM MPP+ 24 hours", "protocol": "(A) SH-SY5Y cells were transfected with pG418-GFP plasmid (vector), pG418-GFP plasmid encoding nNOS ShRNA (ShnNOS) and pG418-GFP plasmid encoding negative control ShRNA (ShNC). The level of nNOS and β-actin in the cell lysates were analyzed by Western blotting assay by using specific antibodies. […] Cell viability was measured at 24 hours after MPP^+ challenge by MTT assays. Data were the mean±SEM of three separate experiments; **p<0.01 versus control; ^##p<0.01 versus MPP^+ group; ^&p<0.05 versus MPP^+ vector group (Turkey's test)."}, "SH-SY5Y cells [9]": {"system": "SH-SY5Y cells", "details": "sustained (3 days) treatment, >1 μM; cited from earlier work"}, "[10]": {"details": "daily oral administration; cited from earlier work"}, "[11]": {"details": "cited from earlier work"}}}
{"smiles": "CCN(CC)CCNC(=O)c1c(C)[nH]c(/C=C2\\C(=O)Nc3ccc(F)cc32)c1C", "note": "[Sunitinib, N-(2-diethylaminoethyl)-5-[(Z)-(5-fluoro-2-oxo-1H-indol-3-ylidene)methyl]-2,4-dimethyl-1H-pyrrole-3-carboxamide]", "values": [{"measurement": "cell proliferative or cytotoxic effects of the drug alone", "setting": "CGNs [1]", "value": "did not show cell proliferative or cytotoxic effects"}, {"measurement": "cell proliferative or cytotoxic effects of the drug alone, SH-SY5Y cells", "setting": "SH-SY5Y cells [2]", "value": "did not show cell proliferative or cytotoxic effects"}, {"measurement": "toxicity to SH-SY5Y cells at higher concentration", "setting": "SH-SY5Y cells [2]; higher concentration (sunitinib 1 μM), data not shown", "value": "at higher concentration (1 μM) showed toxicity to SH-SY5Y cells"}, {"measurement": "MPP+-induced neuronal death in SH-SY5Y cells (MTT)", "setting": "SH-SY5Y cells [2]; pre-treatment 2 hours, then 1 mM MPP+ for 24 hours", "value": "prevented MPP^+-induced neuronal death at 0.1-0.3 μM"}, {"measurement": "IC50", "setting": "rat cerebellum nNOS", "value": 9.6, "unit": "µM"}, {"measurement": "low potassium-induced cell death (MTT)", "setting": "CGNs [3]", "value": "unexpectedly prevented low potassium-induced cell death in CGNs in a concentration-dependent manner"}, {"measurement": "loss of neurons and morphological alteration induced by low potassium (FDA/PI)", "setting": "CGNs [4]", "value": "significantly blocked the loss of neurons and reversed the morphological alteration"}, {"measurement": "neuronal apoptosis induced by low potassium (Hoechst 33342)", "setting": "CGNs [5]", "value": "significantly reversed neuronal apoptosis induced by low potassium"}, {"measurement": "low potassium-stimulated NO production", "setting": "intracellular NO [6]", "value": "antagonized the stimulatory effect of low potassium on the NO production"}, {"measurement": "MPP+-triggered elevation of intracellular NO level in SH-SY5Y cells", "setting": "intracellular NO [7]", "value": "attenuated MPP^+-triggered elevation of intracellular NO level"}, {"measurement": "inhibitory activity against iNOS", "setting": "iNOS", "value": "showed no inhibitory activity against iNOS or eNOS"}, {"measurement": "inhibitory activity against eNOS", "setting": "eNOS", "value": "showed no inhibitory activity against iNOS or eNOS"}, {"measurement": "MPP+-induced cell death in nNOS knockdown SH-SY5Y cells (MTT)", "setting": "[8]", "value": "did not significantly inhibit MPP^+-induced cell death"}, {"measurement": "proliferation of SH-SY5Y cells (previous studies)", "setting": "SH-SY5Y cells [9]", "value": "could reduce the proliferation of SH-SY5Y cells"}, {"measurement": "human plasma steady-state level", "setting": "[10]", "value": "50 to 100", "unit": "ng/mL"}, {"measurement": "sunitinib still accumulated in the brain", "setting": "[11]; 60 min following administration", "value": 25, "unit": "%"}, {"measurement": "sunitinib retained in the brain", "setting": "[11]; 6 hour after oral administration", "value": 60, "unit": "ng/mL"}]}
